Patent US5140018A, “1,3,2-benzodithiazole-1-oxide compounds” (Abbott Laboratories, priority 1991, dated 1992)
In brackets after ≈: the same amount, converted by molar mass. Where two headings read alike, the source gives them in different places.

Experiments:
Assay type in all cases: cell-based
[1] = system: Torulopsis glabrata ATCC 15545; assay: In vitro antifungal MIC, Torulopsis glabrata ATCC 15545; details: Torulopsis glabrata ATCC 15545, 35°-37° C., 48 hours
Method: (§1) The in vitro antifungal activity of the compounds of the present invention against a variety of fungiwas determined as follow: Test medium was prepared by dissolving first 5 g of dextrose and then 6.7 g of Bacto Yeast Nitrogen Base® (commercially available from Difco Laboratories) in 100 mL of distilled water. The solution was filter-sterilized and diluted 1:10 with 0.01M pH 8.0 phosphate buffer solution, and the final pH of the medium adjusted to about pH 7.0 when necessary with either 0.1N hydrochloric acid solution of 0.1N sodium hydroxide solution. […] These concentrated stock solutions were diluted to a concentration of 200 μg/mL (twice the highest concentration desired for testing) with the test medium. Amphotericin B, similarly prepared, was used as a reference antifungal agent.
(§2) The test organisms were then inoculated into test tubes containing approximately 3 to 10 mL of test medium and the test tubes incubated overnight at 37° C. A sample of each overnight culture was placed in a test tube and diluted using the test medium until a reading of 95% transmittance was obtained in a conventional UV/visible spectrophotometer set to 560 nm. The adjusted cultures were then diluted 1:50 with test medium. These diluted cultures served as the inocula for the assays which follow and were used within 15 minutes of preparation.
(§3) Next, 2-fold serial dilutions of each test compound in test medium were prepared in a 96-well microtiter plate using calibrated microdiluters attached to an automatic (hand-held) diluter (available from Dynatech Laboratories).
(§4) Using sterile calibrated droppers or a multi-point dispenser, the diluted inoculum suspension was added to each of the wells in the plate. When inoculation was complete, the microtiter tray was covered with a plastic plate sealer to minimize evaporation. After the plate had been sealed, a hole was made above each well with a sterile 26-gauge syringe needle in order to allow gas exchange. If plate sealers were not available, the microtiter trays were stacked in groups of five or less with an empty tray on top. The microtiter trays were then incubated in a humidified chamber at 35°-37° C. for 48 hours or until growth was visible in the growth control wells.
(§5) The minimum inhibitory concentration (MIC) was defined as the lowest concentration of test compound yielding no growth, a slight haze or sparsely isolated colonies on the inoculum spot as compared to the growth control containing no test compound.

[2] = system: Candida albicans ATCC 38247; assay: In vitro antifungal MIC, Candida albicans ATCC 38247; details: Candida albicans ATCC 38247, 35°-37° C., 48 hours
Method: as §1, §2, §3, §4, §5

Candida albicans 579A = assay: In vitro antifungal MIC, Candida albicans 579A; details: Candida albicans 579A, 35°-37° C., 48 hours
Method: as §1, §2, §3, §4, §5

[3] = system: Candida albicans ATCC 10231; assay: In vitro antifungal MIC, Candida albicans ATCC 10231; details: Candida albicans ATCC 10231, 35°-37° C., 48 hours
Method: as §1, §2, §3, §4, §5

Candida albicans CCH 442 = assay: In vitro antifungal MIC, Candida albicans CCH 442; details: Candida albicans CCH 442, 35°-37° C., 48 hours
Method: as §1, §2, §3, §4, §5

Candida kefyr ATCC 28838 = assay: In vitro antifungal MIC, Candida kefyr ATCC 28838; details: Candida kefyr ATCC 28838, 35°-37° C., 48 hours
Method: as §1, §2, §3, §4, §5

[4] = system: Candida tropicalis NRRL-Y-112; assay: In vitro antifungal MIC, Candida tropicalis NRRL-Y-112; details: Candida tropicalis NRRL-Y-112, 35°-37° C., 48 hours
Method: as §1, §2, §3, §4, §5

[5] = system: Candida albicans ATCC 62376; assay: In vitro antifungal MIC, Candida albicans ATCC 62376; details: Candida albicans ATCC 62376, 35°-37° C., 48 hours
Method: as §1, §2, §3, §4, §5

[6] = system: Cryptococcus albidus ATCC 34140; assay: In vitro antifungal MIC, Cryptococcus albidus ATCC 34140; details: Cryptococcus albidus ATCC 34140, 35°-37° C., 48 hours
Method: as §1, §2, §3, §4, §5

[7] = system: Aspergillus niger ATCC 16404; assay: In vitro antifungal MIC, Aspergillus niger ATCC 16404; details: Aspergillus niger ATCC 16404, 35°-37° C., 48 hours
Method: as §1, §2, §3, §4, §5

[8] = Nakaseomyces glabratus, ATCC15545, read-out: MIC
[9] = Kluyveromyces marxianus, ATCC28838, read-out: MIC
[10] = Naganishia albida, ATCC34140, read-out: MIC

Compound | MIC [1] [µg/mL] | MIC [2] [µg/mL] | MIC (Candida albicans 579A) [µg/mL] | MIC [3] [µg/mL] | MIC (Candida albicans CCH 442) [µg/mL] | MIC (Candida kefyr ATCC 28838) [µg/mL] | MIC [4] [µg/mL] | MIC [5] [µg/mL] | MIC [6] [µg/mL] | MIC [7] [µg/mL] | MIC [1, 8] [µg/mL] | MIC ([2]; ATCC38247, read-out: MIC) [µg/mL] | MIC (Candida albicans 579A; read-out: MIC) [µg/mL] | MIC ([3]; ATCC10231, read-out: MIC) [µg/mL] | MIC (Candida albicans CCH 442; CCH442, read-out: MIC) [µg/mL] | MIC (Candida kefyr ATCC 28838; [9]) [µg/mL] | MIC ([4]; NRRLY112, read-out: MIC) [µg/mL] | MIC ([5]; ATCC62376, read-out: MIC) [µg/mL] | MIC [6, 10] [µg/mL] | MIC ([7]; ATCC16404, read-out: MIC) [µg/mL]
2-n-octyl-5-methyl-1,3,2-benzodithiazole-1-oxide; 2-n-octyl-6-methyl-1,3,2-benzodithiazole-1-oxide [Example 40] | 3.12 | 0.2 | 0.78 | 1.56 | 3.12 | 0.78 | 3.12 | 1.56 | 3.12 | 1.56 | – | – | – | – | – | – | – | – | – | –
2-phenylmethyl-5-methyl-1,3,2-benzodithiazole-1-oxide; 2-phenylmethyl-6-methyl-1,3,2-benzodithiazole-1-oxide [Example 41] | 3.12 | 0.39 | 0.78 | 1.56 | 3.12 | 0.78 | 3.12 | 1.56 | 6.25 | 1.56 | – | – | – | – | – | – | – | – | – | –
[O-][S+]1c2ccccc2SN1CCc1ccccc1 (centres unmarked) [Example 1, 2-(2-Phenylethyl)-1,3,2-benzodithiazole-1-oxide] | – | – | – | – | – | – | – | – | – | – | 1.56 (≈ 5.66 µM) | 1.56 (≈ 5.66 µM) | 0.39 (≈ 1.42 µM) | 0.78 (≈ 2.83 µM) | 1.56 (≈ 5.66 µM) | 0.78 (≈ 2.83 µM) | 3.12 (≈ 11.3 µM) | 0.78 (≈ 2.83 µM) | 3.12 (≈ 11.3 µM) | 3.12 (≈ 11.3 µM)
CN1Sc2ccccc2[S+]1[O-] (centres unmarked) [Example 2, 2-methyl-1,3,2-benzodithiazole-1-oxide] | – | – | – | – | – | – | – | – | – | – | 0.78 (≈ 4.21 µM) | – | 1.56 (≈ 8.42 µM) | 1.56 (≈ 8.42 µM) | 1.56 (≈ 8.42 µM) | 1.56 (≈ 8.42 µM) | 1.56 (≈ 8.42 µM) | 0.78 (≈ 4.21 µM) | 3.12 (≈ 16.8 µM) | 3.12 (≈ 16.8 µM)
CCCN1Sc2ccccc2[S+]1[O-] (centres unmarked) [Example 3, 2-n-propyl-1,3,2-benzodithiazole-1-oxide] | – | – | – | – | – | – | – | – | – | – | 0.78 (≈ 3.66 µM) | 3.12 (≈ 14.6 µM) | 0.78 (≈ 3.66 µM) | 0.78 (≈ 3.66 µM) | 0.78 (≈ 3.66 µM) | 0.2 (≈ 0.938 µM) | 0.78 (≈ 3.66 µM) | 0.78 (≈ 3.66 µM) | 3.12 (≈ 14.6 µM) | 6.25 (≈ 29.3 µM)
CCCCCN1Sc2ccccc2[S+]1[O-] (centres unmarked) [Example 4, 2-n-pentyl-1,3,2-benzodithiazole-1-oxide] | – | – | – | – | – | – | – | – | – | – | 0.78 (≈ 3.23 µM) | 3.12 (≈ 12.9 µM) | 0.78 (≈ 3.23 µM) | 0.78 (≈ 3.23 µM) | 0.78 (≈ 3.23 µM) | 0.78 (≈ 3.23 µM) | 50 (≈ 207 µM) | 0.78 (≈ 3.23 µM) | 6.25 (≈ 25.9 µM) | 0.39 (≈ 1.62 µM)
CCCCCCCN1Sc2ccccc2[S+]1[O-] (centres unmarked) [Example 5, 2-n-heptyl-1,3,2-benzodithiazole-1-oxide] | – | – | – | – | – | – | – | – | – | – | 0.39 (≈ 1.45 µM) | 0.78 (≈ 2.89 µM) | 0.2 (≈ 0.742 µM) | 0.39 (≈ 1.45 µM) | 0.78 (≈ 2.89 µM) | 0.39 (≈ 1.45 µM) | 0.78 (≈ 2.89 µM) | 0.78 (≈ 2.89 µM) | 3.12 (≈ 11.6 µM) | 0.39 (≈ 1.45 µM)
CCCCCCCCN1Sc2ccccc2[S+]1[O-] (centres unmarked) [Example 6, 2-n-octyl-1,3,2-benzodithiazole-1-oxide] | – | – | – | – | – | – | – | – | – | – | 0.2 (≈ 0.706 µM) | 0.39 (≈ 1.38 µM) | 0.2 (≈ 0.706 µM) | 0.2 (≈ 0.706 µM) | 0.2 (≈ 0.706 µM) | 0.1 (≈ 0.353 µM) | 0.2 (≈ 0.706 µM) | 0.1 (≈ 0.353 µM) | 3.12 (≈ 11 µM) | 0.2 (≈ 0.706 µM)
CCCCCCCCCN1Sc2ccccc2[S+]1[O-] (centres unmarked) [Example 7, 2-n-nonyl-1,3,2-benzodithiazole-1-oxide] | – | – | – | – | – | – | – | – | – | – | 1.56 (≈ 5.24 µM) | 1.56 (≈ 5.24 µM) | 0.78 (≈ 2.62 µM) | 1.56 (≈ 5.24 µM) | 1.56 (≈ 5.24 µM) | 0.78 (≈ 2.62 µM) | 1.56 (≈ 5.24 µM) | 1.56 (≈ 5.24 µM) | 6.25 (≈ 21 µM) | 0.78 (≈ 2.62 µM)
CCCCCCCCCCN1Sc2ccccc2[S+]1[O-] (centres unmarked) [Example 8, 2-n-decyl-1,3,2-benzodithiazole-1-oxide] | – | – | – | – | – | – | – | – | – | – | 3.12 (≈ 10 µM) | 6.25 (≈ 20.1 µM) | 6.25 (≈ 20.1 µM) | 1.56 (≈ 5.01 µM) | 6.25 (≈ 20.1 µM) | 1.56 (≈ 5.01 µM) | 3.12 (≈ 10 µM) | 6.25 (≈ 20.1 µM) | 12.5 (≈ 40.1 µM) | 1.56 (≈ 5.01 µM)
C=CCN1Sc2ccccc2[S+]1[O-] (centres unmarked) [Example 10, 2-allyl-1,3,2-benzodithiazole-1-oxide] | – | – | – | – | – | – | – | – | – | – | 0.39 (≈ 1.85 µM) | 6.25 (≈ 29.6 µM) | 0.39 (≈ 1.85 µM) | 0.39 (≈ 1.85 µM) | 0.78 (≈ 3.69 µM) | 0.2 (≈ 0.946 µM) | 0.78 (≈ 3.69 µM) | 0.39 (≈ 1.85 µM) | 3.12 (≈ 14.8 µM) | 0.2 (≈ 0.946 µM)
C#CCN1Sc2ccccc2[S+]1[O-] (centres unmarked) [Example 12, 2-propargyl-1,3,2-benzodithiazole-1-oxide] | – | – | – | – | – | – | – | – | – | – | 0.39 (≈ 1.86 µM) | – | 0.78 (≈ 3.73 µM) | 0.39 (≈ 1.86 µM) | 0.78 (≈ 3.73 µM) | 0.78 (≈ 3.73 µM) | 1.56 (≈ 7.45 µM) | 0.39 (≈ 1.86 µM) | 1.56 (≈ 7.45 µM) | 1.56 (≈ 7.45 µM)
CC(C)(C)N1Sc2ccccc2[S+]1[O-] (centres unmarked) [Example 14, 2-t-butyl-1,3,2-benzodithiazole-1-oxide] | – | – | – | – | – | – | – | – | – | – | 1.56 (≈ 6.86 µM) | 6.25 (≈ 27.5 µM) | 1.56 (≈ 6.86 µM) | 1.56 (≈ 6.86 µM) | 1.56 (≈ 6.86 µM) | 0.2 (≈ 0.88 µM) | 3.12 (≈ 13.7 µM) | 0.78 (≈ 3.43 µM) | 3.12 (≈ 13.7 µM) | 0.78 (≈ 3.43 µM)
